Reference: PMC10382584, “Macrocyclization of linear molecules by deep learning to facilitate macrocyclic drug candidates discovery” (Nature Communications, 2023)

How the values were obtained:
Experiment in all cases: biochemical
Parameters in all cases: DiscoveRx KINOMEscan competition binding, percent of DMSO control signal at 100 nM
Settings in all cases: read-out: Fig. 4a / Percent Control / Compound 1; percent of DMSO control, competition binding
CAMKK1 = CAMKK1 (Homo sapiens, UniProt Q8N5S9)
Description: (§1) The kinase selectivity profile was performed by using the DiscoveRx KINOMEscan platform. […] Test compounds were prepared as 40× stocks in 100% DMSO and directly diluted into the assay. The results were defined as a percentage of signal between the negative (DMSO, 100% control) and the positive (control compound, 0% control) control, which was calculated as follows: percent control = [(test compound signal − positive control signal)/(negative control signal − positive control signal)] × 100.

CDK7 = CDK7 (Homo sapiens, UniProt P50613)
Description: as §1

CLK3 = CLK3 (Homo sapiens, UniProt P49761)
Description: as §1

CSNK2A1 = CSNK2A1 (Homo sapiens, UniProt P68400)
Description: as §1

DMPK2 = biological target: T1, DMPK2 (Homo sapiens, UniProt Q6DT37)
T1 construct: gene CDC42BPG
Description: as §1

DRAK1 = biological target: T2, DRAK1 (Homo sapiens, UniProt Q9UEE5)
T2 construct: gene STK17A
Description: as §1

EPHB3 = EPHB3 (Homo sapiens, UniProt P54753)
Description: as §1

FGFR2 = FGFR2 (Homo sapiens, UniProt P21802)
Description: as §1

INSRR = INSRR (Homo sapiens, UniProt P14616)
Description: as §1

MEK3 = biological target: T3, MEK3 (Homo sapiens, UniProt P46734)
T3 construct: gene MAP2K3
Description: as §1

NEK2 = NEK2 (Homo sapiens, UniProt P51955)
Description: as §1

NEK9 = NEK9 (Homo sapiens, UniProt Q8TD19)
Description: as §1

PIK3CA(E542K) = PIK3CA(E542K) (Homo sapiens, UniProt P42336, E542K)
Description: as §1

PIK3CG = PIK3CG (Homo sapiens, UniProt P48736)
Description: as §1

PIM3 = PIM3 (Homo sapiens, UniProt Q86V86)
Description: as §1

PIP5K1A = PIP5K1A (Homo sapiens, UniProt Q99755)
Description: as §1

PIP5K2C = biological target: T4, PIP5K2C (Homo sapiens, UniProt Q8TBX8)
T4 construct: gene PIP4K2C
Description: as §1

PRKX = PRKX (Homo sapiens, UniProt P51817)
Description: as §1

RIPK4 = RIPK4 (Homo sapiens, UniProt P57078)
Description: as §1

[1] = biological target: T5, RPS6KA4(Kin.Dom.1-N-terminal) (Homo sapiens, UniProt O75676)
T5 construct: Kin.Dom.1-N-terminal
Description: as §1

TAK1 = biological target: T6, TAK1 (Homo sapiens, UniProt O43318)
T6 construct: gene MAP3K7
Description: as §1

TAOK2 = TAOK2 (Homo sapiens, UniProt Q9UL54)
Description: as §1

TNK1 = TNK1 (Homo sapiens, UniProt Q13470)
Description: as §1

VPS34 = biological target: T7, VPS34 (Homo sapiens, UniProt Q8NEB9)
T7 construct: gene PIK3C3
Description: as §1

YSK4 = biological target: T8, YSK4 (Homo sapiens, UniProt Q56UN5)
T8 construct: gene MAP3K19
Description: as §1
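Note: KINOMEscan kinase panel binding assay, signal normalized between DMSO as 100% and a positive control compound as 0%.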

Chain of CDK7 (P50613 whole entry): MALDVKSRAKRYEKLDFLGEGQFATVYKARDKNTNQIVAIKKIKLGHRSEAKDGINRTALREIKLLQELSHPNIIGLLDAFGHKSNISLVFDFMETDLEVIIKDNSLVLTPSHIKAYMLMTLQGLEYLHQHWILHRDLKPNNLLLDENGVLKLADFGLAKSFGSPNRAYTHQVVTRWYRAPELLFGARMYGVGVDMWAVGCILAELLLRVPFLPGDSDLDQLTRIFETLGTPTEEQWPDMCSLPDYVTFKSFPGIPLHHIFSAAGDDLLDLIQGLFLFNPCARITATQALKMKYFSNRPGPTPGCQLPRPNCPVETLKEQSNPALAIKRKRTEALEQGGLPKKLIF
Chain of CLK3 (P49761 whole entry): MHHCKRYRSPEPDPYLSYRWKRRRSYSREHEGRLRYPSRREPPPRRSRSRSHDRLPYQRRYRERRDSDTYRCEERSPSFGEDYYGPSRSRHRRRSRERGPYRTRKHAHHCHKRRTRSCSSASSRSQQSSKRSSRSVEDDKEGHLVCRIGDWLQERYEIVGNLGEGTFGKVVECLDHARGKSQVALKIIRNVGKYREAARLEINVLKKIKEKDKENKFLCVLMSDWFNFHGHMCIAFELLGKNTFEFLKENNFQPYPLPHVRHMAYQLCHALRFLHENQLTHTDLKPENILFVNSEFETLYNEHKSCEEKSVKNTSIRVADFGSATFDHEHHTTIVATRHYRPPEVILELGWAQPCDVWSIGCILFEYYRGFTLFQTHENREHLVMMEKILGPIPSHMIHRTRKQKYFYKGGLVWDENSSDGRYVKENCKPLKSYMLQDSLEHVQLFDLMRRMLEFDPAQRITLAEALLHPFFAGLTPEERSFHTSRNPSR
T1 sequence (Q6DT37 whole entry): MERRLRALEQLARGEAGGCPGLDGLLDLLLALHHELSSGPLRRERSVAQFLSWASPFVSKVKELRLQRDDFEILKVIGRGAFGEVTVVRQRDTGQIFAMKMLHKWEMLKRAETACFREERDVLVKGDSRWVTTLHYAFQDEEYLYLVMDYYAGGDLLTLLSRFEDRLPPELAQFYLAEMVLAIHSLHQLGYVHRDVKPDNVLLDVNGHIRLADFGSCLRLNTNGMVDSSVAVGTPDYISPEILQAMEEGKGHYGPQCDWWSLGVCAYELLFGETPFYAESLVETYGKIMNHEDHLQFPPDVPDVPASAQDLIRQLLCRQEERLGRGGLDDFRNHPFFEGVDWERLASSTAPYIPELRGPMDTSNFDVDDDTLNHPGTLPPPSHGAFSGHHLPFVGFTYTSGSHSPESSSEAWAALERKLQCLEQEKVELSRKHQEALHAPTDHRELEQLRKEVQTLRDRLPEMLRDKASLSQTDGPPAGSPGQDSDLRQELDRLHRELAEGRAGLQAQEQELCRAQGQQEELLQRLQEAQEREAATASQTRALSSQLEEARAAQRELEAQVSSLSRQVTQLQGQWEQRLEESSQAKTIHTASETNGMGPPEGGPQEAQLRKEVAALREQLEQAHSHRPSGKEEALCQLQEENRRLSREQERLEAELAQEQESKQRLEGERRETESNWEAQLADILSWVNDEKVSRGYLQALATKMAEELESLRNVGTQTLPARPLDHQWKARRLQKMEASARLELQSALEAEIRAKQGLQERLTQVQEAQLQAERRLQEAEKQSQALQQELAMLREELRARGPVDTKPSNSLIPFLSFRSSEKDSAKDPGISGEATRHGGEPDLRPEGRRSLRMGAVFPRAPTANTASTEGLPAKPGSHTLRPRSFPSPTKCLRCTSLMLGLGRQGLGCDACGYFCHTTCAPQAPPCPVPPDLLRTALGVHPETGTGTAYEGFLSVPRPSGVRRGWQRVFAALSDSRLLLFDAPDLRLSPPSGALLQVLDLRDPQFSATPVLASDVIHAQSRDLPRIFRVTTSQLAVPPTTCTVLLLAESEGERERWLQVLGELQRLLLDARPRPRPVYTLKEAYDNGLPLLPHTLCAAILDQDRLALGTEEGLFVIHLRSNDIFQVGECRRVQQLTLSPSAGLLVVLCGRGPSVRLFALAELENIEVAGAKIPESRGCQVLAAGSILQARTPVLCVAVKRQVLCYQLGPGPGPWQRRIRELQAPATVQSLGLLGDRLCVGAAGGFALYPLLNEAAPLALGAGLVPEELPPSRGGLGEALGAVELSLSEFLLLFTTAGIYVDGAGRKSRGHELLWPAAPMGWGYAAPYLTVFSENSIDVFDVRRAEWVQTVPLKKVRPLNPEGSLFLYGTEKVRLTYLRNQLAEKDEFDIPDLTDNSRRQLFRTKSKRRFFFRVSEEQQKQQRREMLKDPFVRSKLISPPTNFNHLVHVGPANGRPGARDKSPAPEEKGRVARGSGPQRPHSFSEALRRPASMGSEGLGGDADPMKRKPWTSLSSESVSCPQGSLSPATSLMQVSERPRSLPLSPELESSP
T4 sequence (Q8TBX8 whole entry): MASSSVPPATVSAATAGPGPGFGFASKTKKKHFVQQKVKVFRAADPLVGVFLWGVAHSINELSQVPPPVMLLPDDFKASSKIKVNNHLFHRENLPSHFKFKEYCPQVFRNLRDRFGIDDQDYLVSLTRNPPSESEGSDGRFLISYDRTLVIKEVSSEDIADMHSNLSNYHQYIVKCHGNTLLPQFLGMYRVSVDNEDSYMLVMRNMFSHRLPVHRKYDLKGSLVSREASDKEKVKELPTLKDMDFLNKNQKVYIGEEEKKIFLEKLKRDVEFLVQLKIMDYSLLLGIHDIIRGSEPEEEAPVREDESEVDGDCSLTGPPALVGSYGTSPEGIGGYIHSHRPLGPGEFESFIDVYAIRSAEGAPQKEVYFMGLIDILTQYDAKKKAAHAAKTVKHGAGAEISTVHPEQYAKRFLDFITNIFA
Chain of TAOK2 (Q9UL54 whole entry): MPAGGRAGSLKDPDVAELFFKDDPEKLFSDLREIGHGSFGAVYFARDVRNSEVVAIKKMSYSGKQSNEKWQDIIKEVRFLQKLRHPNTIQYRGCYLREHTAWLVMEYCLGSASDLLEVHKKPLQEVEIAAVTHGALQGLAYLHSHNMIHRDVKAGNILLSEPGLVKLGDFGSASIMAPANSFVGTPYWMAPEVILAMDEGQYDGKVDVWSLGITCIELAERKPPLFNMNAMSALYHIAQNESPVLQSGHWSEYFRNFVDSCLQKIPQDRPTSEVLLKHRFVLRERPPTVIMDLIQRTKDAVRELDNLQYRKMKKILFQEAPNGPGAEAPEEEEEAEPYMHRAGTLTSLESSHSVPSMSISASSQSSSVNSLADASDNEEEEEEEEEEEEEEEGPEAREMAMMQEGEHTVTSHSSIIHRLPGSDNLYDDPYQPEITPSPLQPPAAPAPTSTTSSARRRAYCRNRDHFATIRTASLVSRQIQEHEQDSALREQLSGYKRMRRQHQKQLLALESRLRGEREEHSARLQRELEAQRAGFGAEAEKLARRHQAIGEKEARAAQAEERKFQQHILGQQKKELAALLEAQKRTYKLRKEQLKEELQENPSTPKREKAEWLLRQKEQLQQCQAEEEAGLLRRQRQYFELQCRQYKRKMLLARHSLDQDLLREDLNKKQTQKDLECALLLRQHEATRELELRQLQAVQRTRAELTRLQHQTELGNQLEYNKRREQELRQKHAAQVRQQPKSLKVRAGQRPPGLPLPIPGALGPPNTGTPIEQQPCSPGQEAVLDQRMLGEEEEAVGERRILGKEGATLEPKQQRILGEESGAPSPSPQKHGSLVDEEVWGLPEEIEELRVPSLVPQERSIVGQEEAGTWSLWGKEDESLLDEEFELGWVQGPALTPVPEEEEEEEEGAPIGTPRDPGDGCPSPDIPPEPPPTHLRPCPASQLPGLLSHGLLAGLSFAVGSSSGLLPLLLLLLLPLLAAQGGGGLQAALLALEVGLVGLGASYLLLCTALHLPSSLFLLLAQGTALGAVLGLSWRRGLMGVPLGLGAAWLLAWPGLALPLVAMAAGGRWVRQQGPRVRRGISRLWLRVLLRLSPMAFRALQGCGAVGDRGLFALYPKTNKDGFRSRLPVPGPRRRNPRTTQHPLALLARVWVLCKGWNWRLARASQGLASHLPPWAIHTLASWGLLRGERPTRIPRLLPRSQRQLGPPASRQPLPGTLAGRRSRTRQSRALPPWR
Chain of FGFR2 (P21802 whole entry): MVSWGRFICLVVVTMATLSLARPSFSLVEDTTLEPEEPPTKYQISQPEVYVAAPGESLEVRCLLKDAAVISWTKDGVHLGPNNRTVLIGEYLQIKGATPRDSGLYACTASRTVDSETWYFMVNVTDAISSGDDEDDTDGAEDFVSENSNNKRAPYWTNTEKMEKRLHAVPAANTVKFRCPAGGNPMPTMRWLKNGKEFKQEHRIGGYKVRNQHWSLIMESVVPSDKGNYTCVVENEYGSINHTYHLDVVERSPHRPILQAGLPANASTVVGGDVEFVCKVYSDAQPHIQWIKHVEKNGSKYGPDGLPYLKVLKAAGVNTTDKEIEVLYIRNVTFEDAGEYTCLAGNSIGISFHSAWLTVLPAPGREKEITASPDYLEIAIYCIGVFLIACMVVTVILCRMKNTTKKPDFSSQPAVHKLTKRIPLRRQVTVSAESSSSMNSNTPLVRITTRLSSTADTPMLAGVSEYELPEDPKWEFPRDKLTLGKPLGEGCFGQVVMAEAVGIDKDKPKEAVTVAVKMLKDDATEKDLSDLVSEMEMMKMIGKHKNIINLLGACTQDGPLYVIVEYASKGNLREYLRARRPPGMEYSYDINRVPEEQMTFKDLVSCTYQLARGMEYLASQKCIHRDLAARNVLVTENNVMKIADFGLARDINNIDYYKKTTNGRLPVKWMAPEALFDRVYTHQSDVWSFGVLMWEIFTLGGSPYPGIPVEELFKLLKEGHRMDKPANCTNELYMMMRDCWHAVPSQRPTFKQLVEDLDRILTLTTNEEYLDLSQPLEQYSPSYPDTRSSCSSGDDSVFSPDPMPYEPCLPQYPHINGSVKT

Cc1cnc2nc1Nc1cccc(c1)COCc1cc(ccc1OCCN1CCCC1)N2 [Compound 1]
remaining binding at 0.1 µM (CAMKK1): 100%
remaining binding at 0.1 µM (CDK7): 77%
remaining binding at 0.1 µM (CLK3): 100%
remaining binding at 0.1 µM (CSNK2A1): 57%
remaining binding at 0.1 µM (DMPK2): 98%
remaining binding at 0.1 µM (DRAK1): 100%
remaining binding at 0.1 µM (EPHB3): 100%
remaining binding at 0.1 µM (FGFR2): 79%
remaining binding at 0.1 µM (INSRR): 89%
remaining binding at 0.1 µM (MEK3): 76%
remaining binding at 0.1 µM (NEK2): 83%
remaining binding at 0.1 µM (NEK9): 83%
remaining binding at 0.1 µM (PIK3CA(E542K)): 89%
remaining binding at 0.1 µM (PIK3CG): 69%
remaining binding at 0.1 µM (PIM3): 100%
remaining binding at 0.1 µM (PIP5K1A): 49%
remaining binding at 0.1 µM (PIP5K2C): 76%
remaining binding at 0.1 µM (PRKX): 76%
remaining binding at 0.1 µM (RIPK4): 65%
remaining binding at 0.1 µM [1]: 100%
remaining binding at 0.1 µM (TAK1): 67%
remaining binding at 0.1 µM (TAOK2): 63%
remaining binding at 0.1 µM (TNK1): 38%
remaining binding at 0.1 µM (VPS34): 27%
remaining binding at 0.1 µM (YSK4): 11%
